Like-named read-outs stand apart in the source and are kept apart here.
How the values were obtained:
[1] = system: Cullin-3 (CUL3) neddylation; assay: AlphaLISA assay for Cullin-3 (CUL3) neddylation in TF 1 cells; assay type: cell-based; details: 3 hours treatment
Procedure: An AiphaLISA assay was performed to evaluate the ability of the compounds to suppress neddylation, which is downstream from DCN-1 and DCN-2. A stronger inhibition of DCN-1 and DCN-2 is expected to result in a suppression of neddylation as shown by a lower AlphaLISA signal. The AlphaLISA assay for detecting Cullin-3 (CUL3) neddylation was performed according to manufacturer instructions (Revvity, Hopkinton, MA). Briefly, TF 1 cells (ATCC) were plated in Iscove's Modified Dulbecco's Medium (IMIDM) without supplements in 384-well plates. These cells were treated with […] for 3 hours before lysing them with AlphaLISA lysis buffer, 5× (Revvity). To detect the level of CUL3 neddylation, biotinylated anti-NEDD8 antibody, was added followed by AlphaLISA Acceptor beads conjugated with anti-CUL3 antibody. After overnight incubation, Streptavidin-coated Alpha Donor beads were added and incubated for 1 hour. The AlphaLISA signal was then read on a VICTOR Nivo Multimode Microplate Reader (Revvity, Hopkinton, MA). The positive control was 1 μM DI-1548, which is reported to reduce CUL3 neddylation, also referred to as C-1 in Example 41 (Zhou et al. Nature Comm. 2021). The neddylation signal was normalized such that the percent inhibition is 0% for vehicle control and 100% for positive control. The dose-response curves were fitted with the Hill equation to obtain IC50 values (Graphpad Prism).

[2] = biological target: DCN1 (DCUND1) protein PONY domain (Homo sapiens (Human), UniProt Q96GG9); assay: TR-FRET assay, DCN1 binding with FAM-labeled probe
Summary of the method: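 First, the E. coli-derived PONY domain was biotinylated and paired with streptavidin Tb cryptate. Compounds in 0.1% DMSO were then added to DCN1 and FAM-probe (5 nM/20 nM, or 0.31 nM/900 nM total with 800 nM unlabelled) in TritonX, 200 mM NaCl buffer. Finally, TR-FRET ratios were recorded at 1, 5 and 24 hrs.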

[3] = 24 hr after treatment with compound, read-out: TR FRET IC50 24 hr
[4] = TR FRET IC50 1 hr (nM), 1 hr after treatment with compound
[5] = read-out: TR FRET IC50 1 hr, 1 hr after treatment with compound

DCN1 (DCUND1) protein PONY domain, sequence (Q96GG9 60-248): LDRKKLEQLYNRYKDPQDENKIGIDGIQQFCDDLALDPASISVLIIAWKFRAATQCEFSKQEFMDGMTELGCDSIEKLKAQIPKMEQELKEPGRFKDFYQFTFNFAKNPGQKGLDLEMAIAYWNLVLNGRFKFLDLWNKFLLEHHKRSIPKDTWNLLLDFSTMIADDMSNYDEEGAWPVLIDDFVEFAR

CCN1C(=O)[C@@H](NC(=O)c2cccc(C(F)(F)F)c2)[C@@H](c2ccc(F)cc2)c2c(C(=O)N3[C@H](C#N)C[C@H]4C[C@H]43)nn([C@@H]3CCOC3)c21 (single isomer, unassigned) [Compound I-583]
IC50 [1]: > 1000 nM | IC50 [2, 3]: 1000 to 3000 nM | IC50 [2, 4]: 1000 to 3000 nM

CCN1C(=O)[C@H](NC(=O)c2cccc(C(F)(F)F)c2)[C@H](c2ccc(F)cn2)c2c([C@@H](C)NC#N)nn(-c3ccccc3)c21 [Compound I-525]
IC50 ([1]; Homo sapiens, TF-1, 3 h): > 1000 nM | IC50 [2, 3]: 1000 to 3000 nM | IC50 [2, 4]: 1000 to 3000 nM

CCN1C(=O)[C@@H](NC(=O)c2nc(C(F)(F)F)cs2)[C@@H](c2ccc(F)cc2)c2c(C(=O)N3CCC[C@H]3C#N)nn(C3CCOCC3)c21 [Compound I-586]
IC50 ([1]; Homo sapiens, TF-1, 3 h): ≤ 100 nM | IC50 [2, 3]: 200 to 1000 nM | IC50 [2, 4]: 1000 to 3000 nM

CCN1C(=O)[C@@H](NC(=O)c2cccc(C(F)(F)F)c2)[C@@H](C2CC2)c2c(C(=O)N3CCC[C@H]3C#N)nn(-c3ccccc3)c21 [Compound I-686]
Neddylation IC50 (nM) [1]: + + | IC50 [2, 3]: ≤ 200 nM | IC50 [2, 4]: 1000 to 3000 nM

CCN1C(=O)[C@@H](NC(=O)c2cccc(C(F)(F)F)c2)[C@@H](c2ccc(F)cc2)c2c(C(F)CNC#N)nn(-c3ccccc3)c21 (mixture of isomers) [Compound I-679]
IC50 ([1]; Homo sapiens, TF-1, 3 h): ≤ 100 nM | IC50 [2, 3]: ≤ 200 nM | IC50 [2, 4]: 200 to 1000 nM

CCN1C(=O)[C@@H](NC(=O)c2cccc(C(F)(F)F)c2)[C@@H](c2ccc(F)cc2)c2c([C@@H](CN(C)C)NC(N)=O)nn(-c3ccccc3)c21 (mixture of isomers) [Compound I-673]
IC50 ([1]; Homo sapiens, TF-1, 3 h): > 1000 nM | IC50 [2, 3]: 200 to 1000 nM | IC50 [2, 4]: 200 to 1000 nM

CCN1C(=O)[C@@H](NC(=O)c2cccc(C(F)(F)F)c2)[C@@H](c2ccc(F)cc2)c2c([C@@H](C)NC(N)=O)nn(-c3ccccc3)c21 [Compound I-499, N-((4S,5S)-7-ethyl-4-(4-fluorophenyl)-6-oxo-1-phenyl-3-((R)-1-ureidoethyl)-4,5,6,7-tetrahydro-1H-pyrazolo[3,4-b]pyridin-5-yl)-3-(trifluoromethyl)benzamide]
IC50 ([1]; Homo sapiens, TF-1, 3 h): 100 to 1000 nM | IC50 [2, 3]: 1000 to 3000 nM | IC50 [2, 4]: 1000 to 3000 nM

CCCn1nc(C(=O)N2CCC[C@H]2C#N)c2c1N(CC)C(=O)[C@H](NC(=O)c1cccc(C(F)(F)F)c1)[C@@H]2c1ccc(F)cc1 [Compound I-479]
IC50 ([1]; Homo sapiens, TF-1, 3 h): > 1000 nM | IC50 [2, 3]: 1000 to 3000 nM | IC50 [2, 4]: 1000 to 3000 nM

CCN1C(=O)[C@@H](NC(=O)c2cccc(C(F)(F)F)c2)[C@@H](C2CC2)c2c(C(=O)N3CS(=O)(=O)C[C@@H]3C#N)nn(-c3ccccc3)c21 [Compound I-521]
IC50 ([1]; Homo sapiens, TF-1, 3 h): ≤ 100 nM | IC50 [2, 3]: ≤ 200 nM | IC50 [2, 4]: 1000 to 3000 nM

CCN1C(=O)[C@@H](NC(=O)c2cccc3[nH]ncc23)[C@@H](C2CC2)c2c(C(=O)N3[C@H](C#N)C[C@H]4C[C@H]43)nn(C3CCOCC3)c21 [Compound I-602]
IC50 ([1]; Homo sapiens, TF-1, 3 h): > 1000 nM | IC50 [2, 3]: 1000 to 3000 nM | IC50 [2, 4]: 1000 to 3000 nM

CCN1C(=O)[C@@H](NC(=O)c2cccc(C(F)(F)F)c2)[C@@H](c2ccc(F)cc2)c2c(C(C)=O)nn(-c3ccccc3)c21 (racemic) [Compound I-649]
IC50 ([1]; Homo sapiens, TF-1, 3 h): > 1000 nM | IC50 [2, 3]: 1000 to 3000 nM | IC50 [2, 4]: 1000 to 3000 nM

CCN1C(=O)[C@@H](NC(=O)c2cccc(C(F)(F)F)c2)[C@@H](C2CC2)c2c(C(=O)N3CCOC[C@@H]3C#N)nn(-c3ccccc3)c21 [Compound I-658]
IC50 ([1]; Homo sapiens, TF-1, 3 h): > 1000 nM | IC50 [2, 3]: 200 to 1000 nM | IC50 [2, 4]: 1000 to 3000 nM

CCN1C(=O)[C@@H](NC(=O)c2cccc(C(F)(F)F)c2)[C@@H](c2ccc(F)cc2)c2c(CN(C#N)CCCN3CCN(C4COC4)CC3)nn(-c3ccccc3)c21 [Compound I-614]
IC50 ([1]; Homo sapiens, TF-1, 3 h): ≤ 100 nM | IC50 [2, 3]: ≤ 200 nM | IC50 [2, 4]: 200 to 1000 nM

CCN1C(=O)[C@@H](NC(=O)c2cccc(C(F)(F)F)c2)[C@@H](C2CC2)c2c(C(=O)N3C[C@@H](NC)C[C@H]3C#N)nn(C3CCOCC3)c21 [Compound I-503, N-((4S,5S)-3-((2S,4S)-2-cyano-4-(methylamino)pyrrolidine-1-carbonyl)-4-cyclopropyl-7-ethyl-6-oxo-1-(tetrahydro-2H-pyran-4-yl)-4,5,6,7-tetrahydro-1H-pyrazolo[3,4-b]pyridin-5-yl)-3-(trifluoromethyl)benzamide]
IC50 ([1]; Homo sapiens, TF-1, 3 h): > 1000 nM | IC50 [2, 3]: 200 to 1000 nM | IC50 [2, 4]: 1000 to 3000 nM

CCN1C(=O)[C@@H](NC(=O)c2ccn(C(F)F)n2)[C@@H](C2CC2)c2c(C(=O)N3[C@H](C#N)C[C@H]4C[C@H]43)nn(C3CCOCC3)c21 [Compound I-432]
IC50 ([1]; Homo sapiens, TF-1, 3 h): 100 to 1000 nM | IC50 [2, 3]: ≤ 200 nM | IC50 [2, 4]: 200 to 1000 nM

CCN1C(=O)[C@H](NC(=O)c2cccc(C(F)(F)F)c2)[C@H](c2ccc(F)cc2)c2c(C(=O)N3CCOC[C@H]3C#N)nn(-c3ccccc3)c21 [Compound I-540]
IC50 ([1]; Homo sapiens, TF-1, 3 h): > 1000 nM | IC50 [2, 3]: 1000 to 3000 nM | IC50 [2, 4]: 1000 to 3000 nM

CCN1C(=O)[C@@H](NC(=O)COc2ccccc2)[C@@H](C2CC2)c2c(C(=O)N3[C@H](C#N)C[C@H]4C[C@H]43)nn(C3CCOCC3)c21 [Compound I-628]
IC50 ([1]; Homo sapiens, TF-1, 3 h): 100 to 1000 nM | IC50 [2, 3]: 1000 to 3000 nM | IC50 [2, 4]: 1000 to 3000 nM

CCN1C(=O)[C@@H](NC(=O)c2cccc(C(F)(F)F)c2)[C@@H](C2CC2)c2c(C(=O)N3CC[C@H](NC)[C@H]3C#N)nn(C3CCOCC3)c21 (relative stereo) [Compound I-687, N-((4S,5S)-3-((2S*,3S*)-2-cyano-3-(methylamino)pyrrolidine-1-carbonyl)-4-cyclopropyl-7-ethyl-6-oxo-1-(tetrahydro-2H-pyran-4-yl)-4,5,6,7-tetrahydro-1H-pyrazolo[3,4-b]pyridin-5-yl)-3-(trifluoromethyl)benzamide]
IC50 ([1]; Homo sapiens, TF-1, 3 h): ≤ 100 nM | IC50 [2, 3]: ≤ 200 nM | IC50 [2, 4]: ≤ 200 nM

CCN1C(=O)[C@@H](NC(=O)[C@@H]2CCN(Cc3ccccc3)C2)[C@@H](C2CC2)c2c(C(=O)N3[C@H](C#N)C[C@H]4C[C@H]43)nn(C3CCOCC3)c21 [Compound I-634]
IC50 ([1]; Homo sapiens, TF-1, 3 h): > 1000 nM | IC50 [2, 3]: 1000 to 3000 nM | IC50 [2, 4]: 1000 to 3000 nM

CCN1C(=O)[C@@H](NC(=O)c2cccc(C(F)(F)F)c2)[C@@H](C2CC2)c2c(C(=O)N3[C@H](C#N)C[C@@H]4C[C@@H]43)nn(C3CCOCC3)c21 [Compound I-441]
IC50 ([1]; Homo sapiens, TF-1, 3 h): > 1000 nM | IC50 [2, 3]: 200 to 1000 nM | IC50 [2, 4]: 1000 to 3000 nM

CCN1C(=O)[C@@H](NC(=O)c2nccc(C(F)(F)F)n2)[C@@H](c2ccc(F)cc2)c2c(CNC(=O)/C=C/C(=O)OC(C)(C)C)nn(-c3ccccc3)c21 [Compound I-408]
IC50 ([1]; Homo sapiens, TF-1, 3 h): 100 to 1000 nM | IC50 [2, 3]: ≤ 200 nM | IC50 [2, 5]: ≤ 200 nM

CCN1C(=O)[C@H](NC(=O)c2cccc(C(F)(F)F)c2)[C@H](c2ccc(F)cc2)c2c(C(=O)N3[C@H](C#N)C[C@H]4C[C@H]43)nn([C@@H]3CCOC3)c21 (single isomer, unassigned) [Compound I-562]
IC50 [1]: > 1000 nM | IC50 [2, 3]: 1000 to 3000 nM | IC50 [2, 4]: 1000 to 3000 nM

CCN1C(=O)[C@@H](NC(=O)c2ccc3nn[nH]c3c2)[C@@H](C2CC2)c2c(C(=O)N3[C@H](C#N)C[C@H]4C[C@H]43)nn(C3CCOCC3)c21 [Compound I-705]
IC50 ([1]; Homo sapiens, TF-1, 3 h): > 1000 nM | IC50 [2, 3]: 1000 to 3000 nM | IC50 [2, 4]: 1000 to 3000 nM

CCN1C(=O)[C@@H](NC(=O)c2cccc(C(F)(F)F)c2)[C@@H](C2CCC2)c2c(C(=O)N3[C@H](C#N)C[C@H]4C[C@H]43)nn(C3CCOCC3)c21 [Compound I-593]
IC50 ([1]; Homo sapiens, TF-1, 3 h): ≤ 100 nM | IC50 [2, 3]: ≤ 200 nM | IC50 [2, 5]: ≤ 200 nM

CCN1C(=O)[C@@](CO)(NC(=O)c2cccc(C(F)(F)F)c2)[C@@H](c2ccc(F)cc2)c2c([C@@H](C)NC#N)nn(-c3ccccc3)c21 [Compound I-608]
IC50 ([1]; Homo sapiens, TF-1, 3 h): > 1000 nM | IC50 [2, 3]: ≤ 200 nM | IC50 [2, 4]: 1000 to 3000 nM

CCN1C(=O)[C@@H](NC(=O)c2ccc3cc[nH]c3c2)[C@@H](C2CC2)c2c(C(=O)N3[C@H](C#N)C[C@H]4C[C@H]43)nn(C3CCOCC3)c21 [Compound I-667]
IC50 ([1]; Homo sapiens, TF-1, 3 h): ≤ 100 nM | IC50 [2, 3]: ≤ 200 nM | IC50 [2, 4]: 200 to 1000 nM
